Measured values reported in US7563774B2, “Combination of FBPase inhibitors and antidiabetic agents useful for the treatment of diabetes” (Metabasis Therapeutics, Inc., priority 2000, dated 2009).

What was measured:
[1] = test system: Sprague Dawley rats; assay: Oral glucose lowering in overnight fasted Sprague Dawley rats (Example G); assay type: in vivo, rat; conditions: […]
Description: Oral efficacy of Compound J was assessed in overnight fasted Sprague Dawley rats. […] At 1.5 h or 4 h post drug administration, a blood sample was taken from the tail vein and analyzed for blood glucose by means of an automated glucose analyzer (HemoCue, HemoCue Inc, Mission Viejo, Calif.).

[2] = test system: Zucker Diabetic Fatty (ZDF) rat; assay: Glucose lowering in the ZDF rat (Example W); assay type: in vivo; conditions: for Blood Glucose: 0.4% food admixture
Excerpt: The Zucker Diabetic Fatty (ZDF) rat is widely used as a model for human NIDDM as the progression of the disease in these rodents is similar to that described for human […] patients. […] Clark J B, Palmer C J (1982) Diabetes 30: 126A Terrettaz J, Jeanrenaud B (1983) Endocrinology 112: 1346-1351.

[3] = test system: C57BL/KsJ db/db mice; assay: Chronic combination treatment of insulin and Compound J in db/db mice (Example BB); assay type: in vivo, mouse; conditions: combination group versus insulin alone
Description: Male C57BL/KsJ db/db mice were purchased at 5 weeks of age from Clea Japan, Inc. (Tokyo, Japan). […] At 19 weeks of age, animals were divided into 2 groups (n=6/group). […] Blood glucose levels in tail vein samples were measured by means of a Glucoloader-F, an automatic glucose analyzer, (A&T Co., Ltd., Tokyo, Japan).

[4] = test system: streptozotocin-induced diabetic rat; assay: Chronic combination treatment of a fatty acid oxidation inhibitor and an FBPase inhibitor in the streptozotocin-induced diabetic rat (Example JJ); assay type: in vivo; conditions: etomoxir 3-300 mg/kg s.c., Compound J 0.2% w/w food admixture, 2-6 weeks
Description: Male Sprague-Dawley rats (Charles Rivers Laboratories) weighing approximately 120 g at the beginning of the study are housed under standard vivarium conditions and fed standard chow (Purina 5001). Rats are rendered diabetic by injection of 55 mg/kg body weight of streptozotocin (STZ) in citrate buffer, pH 4.7. […] Drug treatment is continued for 2-6 weeks. Blood glucose levels are monitored at regular intervals during the treatment period. At the end of the study, rats are anesthetized and instrumented with jugular vein and carotid artery catheters. Hepatic glucose production is measured using a primed constant infusion of (^3H)-6-glucose. Blood samples are taken after two hours, and the specific activity of glucose measured by […]. Hepatic glucose production rater are calculated by standard methods.

`CCOC(=O)[C@H](C)NP(=O)(N[C@@H](C)C(=O)OCC)c1ccc(-c2nc(N)sc2CC(C)C)o1` [Compound J, 2-Amino-5-isobutyl-4-{2-[5-(N,N′-bis((S)-1-ethoxycarbonyl)ethyl)phosphonamido]furanyl}thiazole] was tested, and the “Glucose Lowering, %” value ([1]; Compound J 10 mg/kg p.o.) was 66%, the “Glucose Lowering, %” value ([1]; Compound J 30 mg/kg p.o.) was 85% and the glycemic control [2] was “significantly improved glycemic control”. The “Blood Glucose” value ([2]; Day 0) was 674 ± 20 mg/dL, the “Blood Glucose” value ([2]; Day 21) was 452 ± 40 mg/dL and the “decrease of the insulin dose required to reduce plasma glucose to target levels” value [3] was ~40%. The Blood Glucose [4] was “lowered significantly”.
